Results: patent US8003360B2, “Debaryomyces castellii phytase” (Adisseo France S.A.S., priority 2005, dated 2011)
Entries after “also recorded” stand apart in the source; their conditions may differ. Like-named read-outs stand apart in the source and are kept apart here. Blank lines part the entries; values can stand above or below the molecule they belong to.

Legend:
D. castellii phytase [1] = assay: Hydrolysis of various inositol phosphates (Table 6B); format: biochemical, Debaryomyces castellii; details: hydrolysis 30 minutes at 37° C., pH 4
D. castellii phytase [2] = assay: Kinetic constants of the native phytase on substrates; format: biochemical, Debaryomyces castellii; details: +37° C., pH 4 with sodium phytate, pH 5.5 with p-NPP
Procedure: The effect of pH on the phytase activity is determined using the following buffer solutions: 200 mM glycine-HCl, pH 2-3.5; 200 mM sodium acetate-acetic acid, pH 3.5-7; and 200 mM tris-HCl, pH 7-9. The reactions are carried out at +37° C. using the phytate as substrate. The optimum temperature is determined by varying the temperature from +30° C. to +80° C. […] After the heat treatment, the mixture is cooled in ice and the phytase activity is determined using the phytate as substrate.
The kinetic constants are determined on 2 substrates.

[3] = target: recombinant Debaryomyces castellii CBS 2923 phytase (recPhyt, expressed in Pichia pastoris), SEQ ID No. 2 (Schwanniomyces capriottii, UniProt A2TBB4); details: phytate compared with p-NPP
D. castellii phytase [4] = assay: Substrate specificity, phosphate release kinetics (Table 6A); format: biochemical, Debaryomyces castellii; details: 250 mM sodium acetate buffer, 1 mM CaCl2, pH 4, 37° C.
Procedure: The reaction is triggered by the addition of the enzymatic extract (1 volume). The reaction is stopped by acidification of the medium with 20% trichloroacetic acid (1 volume of reaction medium+1 volume of acid). The amount of phosphate released is determined after various incubation times.

[5] = system: Debaryomyces castellii CBS2923 phytase; assay: Influence of the environment (additives, calcium, buffer molarity) on thermostability of the phytase; format: physicochemical; details: additive 10% in 250 mM acetate buffer pH 4, 1 mM calcium
Procedure: At the end of treatment, the extract is cooled in water at +4° C. […] Three types of elements are tested: • sugars or sugar alcohol: sucrose, lactose, trehalose, arabinose, glycerol, • the absence of calcium, • the molarity of the buffer. […] At the end of treatment, the extract is cooled in water to +4° C. […] Materials and Methods).

D. castellii phytase [6] = assay: Influence of effectors on phytase activity; format: biochemical, Debaryomyces castellii
[7] = target: Debaryomyces castellii CBS 2923 phytase, native (wild type), SEQ ID No. 2 (Schwanniomyces capriottii, UniProt A2TBB4); assay: Influence of effectors on the phytase activity; format: biochemical; details: for effect on the phytase activity (in words): Table 3
Procedure: The amount of phosphate released is measured by colorimetery. The visualizing solution, prepared extemporaneously, contains iron sulphate (380 mM, 1 volume) and ammonium heptamolybdate (12 mM, 4 volumes). The absorbance at 700 nm is measured after 30 minutes of visualization at ambient temperature (1 volume of reaction medium+1 volume of visualizing solution), using a UV/visible spectrophotometer (Beckman DU 530).

[8] = system: Schwanniomyces occidentalis phytase; details: Segueilha et al., 1992; cited from earlier work
[9] = effector 5 mM, phytate control = 100

SMILES: O=P(O)(O)OC1[C@@H](O)[C@H](O)C(O)[C@H](O)[C@H]1O (some centres unmarked) [Ins(2)P1]
% activity (D. castellii phytase [1]; substrate 1 mM): 84%

SMILES: O=P(O)(O)O[C@H]1[C@H](OP(=O)(O)O)[C@@H](OP(=O)(O)O)[C@H](OP(=O)(O)O)[C@@H](OP(=O)(O)O)[C@H]1OP(=O)(O)O [Sodium phytate, sodium phytate]
Vm (D. castellii phytase [2]): 35.8 µmol/min/mg
affinity (in words) [3]: greater affinity

SMILES: O=P(O)(O)O[C@@H]1[C@H](O)[C@H](O)[C@@H](OP(=O)(O)O)[C@H](OP(=O)(O)O)[C@H]1O [Ins(1,4,5)P3]
% activity (D. castellii phytase [1]; substrate 0.1 mM): 56%

% activity (D. castellii phytase [4]; substrate 4 mM): 95%
SMILES: O=C(O)C(O)COP(=O)(O)O (stereo not drawn) [D(−)3-phosphoglyceric acid]

activity after 1 h at 20° C. [5]: 94
activity after 1 h at 66.5° C. [5]: 56
SMILES: OC[C@H]1O[C@H](O[C@H]2O[C@H](CO)[C@@H](O)[C@H](O)[C@H]2O)[C@H](O)[C@@H](O)[C@@H]1O [Trehalose, trehalose]

SMILES: [Cl-].[Cl-].[Mg+2] [MgCl2]
% activity (D. castellii phytase [6]; [9]): 68.7%

SMILES: O=C(O)CI [iodoacetic acid]
effect on the phytase activity (in words) [7]: does not cause any inhibition of the activity
% activity (D. castellii phytase [6]): 100%
effect on phytase activity (D. castellii phytase [6]): does not cause any inhibition; also recorded: absence of effect

SMILES: O=P(O)(O)OC1[C@H](O)[C@H](O)C(O)[C@H](O)[C@H]1O (some centres unmarked) [Ins(1)P1]
% activity (D. castellii phytase [1]; substrate 1 mM): 58%

SMILES: [Cl-].[Cl-].[Zn+2] [ZnCl2]
effect on phytase activity [8]: sensitive
% activity (D. castellii phytase [6]; [9]): 57%

SMILES: [Cl][Hg][Cl] [HgCl2]
% activity (D. castellii phytase [6]; [9]): 96.2%

activity after 1 h at 20° C. [5]: 90
activity after 1 h at 66.5° C. [5]: 36
SMILES: O=C[C@@H](O)[C@H](O)[C@H](O)CO [Arabinose, arabinose]

SMILES: [Cl][Fe]([Cl])[Cl] [FeCl3]
% activity (D. castellii phytase [6]; [9]): 92%

SMILES: [Cl][Cr][Cl] [CrCl2]
% activity (D. castellii phytase [6]; [9]): 107.6%

SMILES: OCCS [2-mercaptoethanol]
% activity ([7]; effector 3 mM, phytate control 9 mM = 100): 107%
effect on phytase activity (D. castellii phytase [6]; inhibitors tested, see Table 3): absence of effect

effect on the phytase activity (in words) [7]: re-establishes the activity
SMILES: N[C@@H](Cc1c[nH]c2ccccc12)C(=O)O [tryptophan]

SMILES: II [iodine]
% activity (D. castellii phytase [6]): 25.6%
inhibition of phytase activity (D. castellii phytase [6]; concentrations see Table 3): 75%

% activity (D. castellii phytase [4]; substrate 4 mM): 120%
SMILES: Nc1ncnc2c1ncn2[C@@H]1O[C@H](COP(=O)(O)OP(=O)(O)O)[C@@H](O)[C@H]1O [Adenosine 5′-diphosphate]

activity after 1 h at 20° C. [5]: 97
activity after 1 h at 66.5° C. [5]: 57
SMILES: OC[C@H]1O[C@@](CO)(O[C@H]2O[C@H](CO)[C@@H](O)[C@H](O)[C@H]2O)[C@@H](O)[C@@H]1O [Sucrose, sucrose]

SMILES: O=P(O)(O)O[C@H]1[C@H](OP(=O)(O)O)[C@@H](OP(=O)(O)O)[C@H](OP(=O)(O)O)[C@@H](OP(=O)(O)O)[C@H]1OP(=O)(O)O [Phytic acid, myo-inositol hexakisphosphate]
% activity (D. castellii phytase [1]; substrate 9 mM (control)): 91%
% activity (D. castellii phytase [4]; substrate 9 mM (control)): 100%
